Test results taken from patent US20240374739A1, “BILE ACID CONJUGATE” (Curtin University, priority 2021, published 2024).

Assays:
OC-1 cells [1] = test: Cobalt chloride hypoxia assay; type: cell-based; conditions: cells pre-treated with CoCl2 at 100 μM for 24 hours, microscopic examination
Procedure: This assay is used to determine whether an intervention can reverse hypoxic-induced cell death brought about by cobalt chloride. For this assay, cells are pre-treated with CoCl2 at 100 μM for 24 hours, followed by microscopic examination of cell morphology and viability.

OC-1 cells [2] = test: Seahorse bioenergetics experiment (oxygen consumption rate) after cisplatin; type: cell-based
Procedure: Mitochondrial function was analysed by measuring oxygen consumption rate (OCR) using real-time Seahorse Flux Analyser XF 96 (Seahorse Bioscience, USA) with our well-established method (Kovacevic, Bozica, et al. “Novel hydrogel comprising non-ionic copolymer with various concentrations of pharmacologically active bile acids for cellular injectable gel.” Colloids and Surfaces B: Biointerfaces (2022): 113014). Briefly, the first injection was with media without glucose, with subsequent ATP synthase inhibitor oligomycin and FCCP (carbonyl cyanide-p-trifluoromethoxy phenylhydrazone) and the final injection was complex […] inhibitors Rotenone+antimycin A 77. The result was automatically generated and analysed by the wave software. The OC-1 cells were pre-treated with cisplatin at three different concentrations (20, 30 and 40 μM) for 24 or 48 hours to induce cytotoxicity prior to the seahorse bioenergetics assays.

Caspase 3/9 protein = test: Caspase assay; type: cell-based; conditions: OC-1 cells under stressful, toxic conditions (FIG. 31)
Procedure: The caspase assay was carried as per manufacturer's instructions (abcam, NSW, Australia), as described below.
• Collagen coated cover slip • Fixing agent: 4% paraformaldehyde • Permeabilization agent 0.5% of Tween 20 or trition-X 100 diluted in PBS • Blocking: 1% BSA in PBST may also be used. • PBST: 0.1% Tween 20 in PBS • Primary abs (1:500 in PBS) • Secondary abs (1:1000 in PBS) • Hoechst (Nuclear stain)
First day: Fixation, permeabilize, blocking and add a primary antibody to the cells, as described below:
• Start by aspirating culture medium from each well followed by fixation of the cells with 4% Using 4% paraformaldehyde in PBS pH 7.4 for 10 min at room temperature. (Add one ml in each well). • Shake a plate for a few seconds.
0.5% of Tween 20 or trition-X 100 diluted in PBS. […]
• Make coverslips ready to be mounted onto microscope slides. • Take a clean slide and dispense one drop of antifade mounting medium by slowly from the pipette into the slide. • Carefully remove a coverslip from the well and allow excess wash to drip off and place the cells face down onto the slide. • Clear fingernail polish can be used to seal the coverslip and prevent it from drying out. • Visualized slide under microscope. […]

[3] = system: Neurodegenerated cells (Alzheimer's disease model); test: Immunocytochemical localization of AD specific and neuronal markers; type: cell-based, human; conditions: fluorescence micrographs
Procedure: (§1) Perinatal tissue derived human stem cell model for Alzheimer's disease (AD) was prepared using proprietary protocols to test the effect of new drug entities. Drug treatment was for 24 h in all the assays.
For further confirmation and protein localization of the AD specific neurodegenerative markers and neuronal markers, we performed immunolocalization for BACE1 and synapsin respectively.
Fluorescence micrographs of BACE1 positive neuronal cells were obtained and the effects of probucol, SPQ and HA-1 on neurodegeneration model were compared. […] In the AD model, as expected BACE1 accumulation is clearly pronounced.
In the case of synapsin 1, a disruption in expression of synapsin protein in ND cells was observed.

[4] = system: Neurodegenerated cells (Alzheimer's disease model); test: Glutathione peroxidase / GSH activity, Alzheimer's disease model; type: cell-based, human; conditions: AD model; vs neurodegeneration
Procedure: as §1
Alzheimer's disease-related increase in oxidative stress is associated with decrease in the levels of brain antioxidant glutathione (GSH).
(Statistical analysis: results are expressed in mean±SD. One-way ANOVA followed by Dunnett's post hoc test was performed to compare all columns vs neurodegeneration (p<0.05; *p<0.05, **p<0.001, ***p<0.0001, ns=non-significant, n=3).)

[5] = system: Neurodegenerated cells (Alzheimer's disease model); test: Mitochondrial membrane potential by TMRE assay, Alzheimer's disease model; type: cell-based, human; conditions: AD model; probucol 20 μM, SPQ 10 μM, HA-1 10 μM, rivastigmine 2 μM, 24 hours
Procedure: as §1
Aβ plaques are sources of toxicity that lead to severe structural and functional abnormalities in mitochondria in Alzheimer's disease. For assessing the changes in the electrophysiology and functional changes in the mitochondrial membrane potential, we used TMRE (tetramethylrhodamine ethyl ester) for quantifying changes in mitochondrial membrane potential in live cells by fluorimetry.

[6] = system: Neurodegenerated cells (Alzheimer's disease model); test: Greiss (nitric oxide) assay, Alzheimer's disease model; type: cell-based, human; conditions: AD model
Procedure: as §1
(§2) Increase in oxidative stress is associated with accumulation of amyloid beta seen in the AD model. Increased oxidative stress and nitric oxide levels lead to apoptosis and evoke cytotoxic effects on neurons.

[7] = system: Neurodegenerated cells (perinatal tissue derived human stem cell model for Alzheimer's disease); test: Lactate dehydrogenase (LDH) assay, in vitro model of Alzheimer's disease; type: cell-based; conditions: probucol 20 μM, SPQ 10 μM, HA-1 10 μM, rivastigmine 2 μM, 24 hours; compared to ND cells
Procedure: as §1
LDH leakage is a well characterised marker of cellular membrane damage and increase in indicative of lactate deficit, is a hallmark of AD.

[8] = system: Neurodegenerated cells (Alzheimer's disease model); test: ROS (reactive oxygen species) assay, Alzheimer's disease model; type: cell-based, human; conditions: AD model
Procedure: as §1, §2

[9] = system: Neurodegenerated cells (Alzheimer's disease model); test: Gene expression analysis by qRT-PCR for neuronal, cholinergic and AD associated markers; type: cell-based, human; conditions: 24 h drug treatment
Procedure: as §1
For determining the expression of genes involved in AD specific neurodegeneration and neuronal markers, we analysed BACE and chAT (AD and cholinergic markers) and synapsin 1 and neuropilin (neuronal markers).

[10] = system: Neurodegenerated cells (Parkinson's disease model); test: Greiss (nitric oxide) assay, Parkinson's disease model; type: cell-based, human; conditions: PD model
Procedure: (§3) Perinatal tissue derived human stem cell model for Parkinson's disease (PD) was prepared using proprietary protocols to test the effect of new drug entities. Drug treatment was for 24 hours in all the assays.
(§4) Increase in oxidative stress associated with accumulation of α-synuclein plays a central role in disease progression. Nitric oxide enhances the aggregation of α-synuclein and accelerates disease progression. Increased oxidative stress and nitric oxide levels lead to apoptosis and evoke cytotoxic effects on neurons.

[11] = system: Neurodegenerated cells (Parkinson's disease model); test: Glutathione peroxidase / GSH activity, Parkinson's disease model; type: cell-based, human; conditions: PD model; vs neurodegeneration
Procedure: as §3
Parkinson's disease-related increase in oxidative stress is associated with mitochondrial dysfunction and subsequent decrease in the levels of brain antioxidant glutathione (GSH).
(Statistical analysis: Results are expressed in mean±SD. One-way ANOVA followed by Dunnett's post hoc test was performed to compare all columns vs neurodegeneration (p<0.05; *p<0.05, **p<0.001, ***p<0.0001, ns=non-significant, n=3).)

[12] = system: Neurodegenerated cells (Parkinson's disease model); test: Immunocytochemical localization of PD specific and neuronal markers; type: cell-based, human; conditions: fluorescence micrographs
Procedure: as §3
For further confirmation and protein localization of neuronal, dopaminergic and PD specific neurodegenerative markers, we performed immunolocalization for synapsin I, Nurr1, TH and α-synuclein respectively.
Fluorescence micrographs of synapsin 1 positive neuronal cells were obtained and the effects of probucol, SPQ and HA-1 on neurodegeneration model with L-Dopa as positive control were compared.
Fluorescence micrographs of Nurr1 positive dopaminergic neuronal cells were obtained and the effects of probucol, SPQ and HA-1 on neurodegeneration model with L-Dopa as positive control were compared.
Fluorescence micrographs of TH positive dopaminergic neuronal cells were obtained and the effects of probucol, SPQ and HA-1 on neurodegeneration model with L-Dopa as positive control were compared.
Fluorescence micrographs of α-synuclein immunolocalization were obtained and the effects of probucol, SPQ and HA-1 on neurodegeneration model with L-Dopa as positive control were compared.

[13] = system: Neurodegenerated cells (perinatal tissue derived human stem cell model for Parkinson's disease); test: Mitochondrial membrane potential by TMRE assay, Parkinson's disease model; type: cell-based; conditions: PD model; probucol 20 μM, SPQ 10 μM, HA-1 10 μM, L-Dopa 50 μM, 24 hours
Procedure: as §3
Dysfunctional mitochondria and alterations in the mitochondrial membrane potential promote neurodegeneration seen in Parkinson's disease. For assessing the changes in mitochondrial membrane potential, we used TMRE (tetramethylrhodamine ethyl ester) to quantify the changes in live cells by fluorimetry.
(§5) Neurodegenerated cells were incubated with probucol (20 μM), SPQ (10 μM), HA-1 (10 μM) and L-Dopa (50 μM) for 24 hours (p<0.05; *p<0.05, **p<0.001, ***p<0.0001, ns=non-significant, n=3).

[14] = system: Neurodegenerated cells (Parkinson's disease model); test: ROS assay, Parkinson's disease model; type: cell-based, human; conditions: PD model
Procedure: as §3, §4

[15] = system: Neurodegenerated cells (Parkinson's disease model); test: Gene expression analysis by qRT-PCR for neuronal, dopaminergic and PD associated markers; type: cell-based, human; conditions: 24 hours drug treatment
Procedure: as §3
Gene expression levels of mature neuronal marker (Synapsin I), dopaminergic markers (Nuclear receptor related 1 (Nurr1), Dopamine transporter (DAT) and Tyrosine hydroxylase (TH)), and PD associated marker (α-synuclein) were analysed to determine the effect of probucol, SPQ, HA-1 and L-Dopa.
(A) Synapsin I, (B) Nurr1, (C) DAT, (D) TH and (E) α-synuclein. (p<0.05; *p<0.05, **p<0.001, ***p<0.0001, n=3).

[16] = system: Neurodegenerated cells (Parkinson's disease model); test: Adenosine triphosphate (ATP) assay, Parkinson's disease model; type: cell-based, human; conditions: PD model; probucol 20 μM, SPQ 10 μM, HA-1 10 μM, L-Dopa 50 μM, 24 hours
Procedure: as §3
Impaired energy metabolism and reduced ATP levels are common features of PD. Using the stem cell derived PD model, we measured ATP levels in drug treated (probucol, SPQ and HA-1 and L-Dopa) cells and compared with neurodegenerated (ND) cells.
as §5

CC(=O)O[C@@H]1CC[C@@]2(C)C(C1)C[C@@H](OC(C)=O)[C@H]1[C@@H]3CC[C@H]([C@H](C)CCC(=O)Oc4c(C(C)(C)C)cc(SC(C)(C)Sc5cc(C(C)(C)C)c(O)c(C(C)(C)C)c5)cc4C(C)(C)C)[C@@]3(C)CC[C@@H]12 (stereo in doubt) [HA-2, 2,6-di-tert-butyl-4-((2-((3,5-di-tert-butyl-4-hydroxyphenyl)thio)propan-2-yl)thio)phenyl (4R)-4-[(3R,5R,7R,8R,9S,10S,13R,14S,17R)-3,7-diacetoxy-10,13-dimethyl-2,3,4,5,6,7,8,9,11,12,14,15,16,17-tetradecahydro-1H-cyclopenta[a]phenanthren-17-yl]pentanoate]
cell morphology (OC-1 cells [1]): optimal morphology
oxygen consumption rate (OCR) (OC-1 cells [2]; OC-1 cells after 24 hours exposure to cisplatin (20, 30 and 40 μM)): most potent in reversing the cisplatin-induced cytotoxicity
oxygen consumption rate (OCR) (OC-1 cells [2]; OC-1 cells after 48 hours exposure to cisplatin (20, 30 and 40 μM)): significantly reverse the cytotoxic effects of cisplatin
protection against programmed cell death (caspase-3 activation) / viable cell population (Caspase 3/9 protein): least amount of cell death

CCN(C)C(=O)Oc1cccc([C@H](C)N(C)C)c1 [rivastigmine]
accumulation of BACE1 protein (immunolocalization) [3]: least expression
glutathione (GSH) activity [4]: increase in the anti-oxidant GSH activity
mitochondrial membrane potential (TMRE) [5]: maintain the mitochondrial membrane potential
nitric oxide level [6]: reduction of ROS and NO levels
LDH activity / LDH release [7]: decreased significantly LDH activity
intracellular reactive oxidative stress (ROS) [8]: reduction of ROS and NO levels
BACE1 gene expression (qRT-PCR) [9]: decrease the level of beta secretase 1 (BACE1)
ChAT gene expression (qRT-PCR) [9]: increase the level of choline acetyltransferase (ChAT)

N[C@@H](Cc1ccc(O)c(O)c1)C(=O)O [L-Dopa, Levodopa]
nitric oxide level [10]: reduction of ROS and NO levels
glutathione (GSH) activity [11]: increase in the GSH activity
accumulation of α-synuclein (immunolocalization) [12]: least expression
mitochondrial membrane potential (TMRE) [13]: maintain the mitochondrial membrane potential
intracellular reactive oxidative stress (ROS) [14]: reduction of ROS and NO levels
TH gene expression (qRT-PCR) [15]: clearly upregulated
ATP level [16]: Enhanced increase in ATP levels
